Reference: publication PMC4890124, “Antimicrobial activity, improved cell selectivity and mode of action of short PMAP-36-derived peptides against bacteria and Candida” (Scientific Reports, 2016)
≈ marks a conversion by molar mass, not a printed value. Marks after values point to notes of the source that are not given here. Peptide text beside a SMILES is read from it.

Columns and labels:
[1] = test system: Candida albicans CGMCC 2.2086; assay: microbe, parasite or virus in culture; type: cell-based; conditions: CGMCC 2.2086, 48 h
From the text: (§1) The antifungal activities were monitored in RPMI-1640 broth medium by a 2-fold microdilution assay according to the Clinical and Laboratory Standards Institute (CLSI) methods. The Candida albicans CGMCC 2.2086, Candida tropicalis CGMCC 2.1975, and Candida krusei CGMCC 2.1857 fungal strains were purchased from the China General Microbiological Culture Collection Center (CGMCC, Beijing, China). Clinically isolated Candida albicans CA2761 was provided by the 4th Affiliated Hospital of Harbin Medical University. Briefly, fungal strains were cultured on YPD agar plates (1% peptone, 0.5% yeast extract, 1% glucose and 2% agar) at 28 °C to prepare Candida suspensions with a turbidity of a 0.5 McFarland standard. A total of 50 μl inoculum cell suspension diluted in RPMI-1640 broth medium was added to an equal volume of peptide solution to achieve a final peptide concentrations ranging from 0.25 μM to 128 μM in a 96-well plate. Pure broth alone or with inoculum suspensions was used as the negative control or the positive control, respectively. The plate was incubated at 28 °C for 48 h. MIC was considered the lowest concentration at which no fungal growth was visually observed under experimental conditions. […] After 48 h incubation at 28 °C, MFC was defined as the lowest concentration of peptides that killed at least 99.9% of the initial inoculums. Experiments were performed in triplicate with three biological replicates.

[2] = test system: Candida krusei CGMCC 2.1857; assay: microbe, parasite or virus in culture; type: cell-based; conditions: CGMCC 2.1857, 48 h
From the text: as §1

[3] = test system: Candida tropicalis CGMCC 2.1975; assay: microbe, parasite or virus in culture; type: cell-based; conditions: CGMCC 2.1975, 48 h; for MFC: read-out: MFC C. tropicalis 2.1975; for MIC: read-out: MIC C. tropicalis 2.1975
From the text: as §1

[4] = test system: C. albicans CA276 (clinical isolate); assay: microbe, parasite or virus in culture; type: cell-based, Candida albicans; conditions: CA276 (clinical isolate, 48 h)
From the text: as §1

[5] = test system: Escherichia coli ATCC 25922; type: cell-based; conditions: ATCC 25922, 18 h
Method: (§2) The peptide antibacterial activity was determined against both gram-positive and gram-negative bacteria strains, including Escherichia coli ATCC 25922, Escherichia coli UB1005, Salmonella enterica serovar typhimurium C77-31, Staphylococcus aureus ATCC 29213, Staphylococcus aureus ATCC 25923, Bacillus subtilis CMCC 63501, and Staphylococcus epidermidis ATCC 12228. Clinically isolated Escherichia coli EC183 was provided by the 4th Affiliated Hospital of Harbin Medical University. MIC of the peptides was measured using a modified version of the National Committee for Clinical Laboratory Standards (NCCLS) broth microdilution method as described previously. The bacterial strains were inoculated and grown to mid-log phase in fresh Mueller-Hinton broth (MHB) at 37 °C. Bacterial inoculum suspensions were prepared at a final concentration of approximately 1 × 10^5 CFU/ml. Peptides were 2-fold serially diluted to make different concentrations, from 0.5 to 256 μM. Equal volumes of inoculum suspensions were then added to each well of a sterile 96-well plate with different concentrations of peptides, and the plate was incubated for 18 h at 37 °C. Broth with or without bacteria was employed as the positive control or the negative control, respectively. MIC was defined as the lowest concentration of peptides that prevented visible turbidity by visual inspection. […] After overnight incubation at 37 °C, MBC was defined as the lowest concentration of peptides that killed at least 99.9% of the initial inoculums. Experiments were performed in triplicate with three biological replicates.

[6] = test system: Escherichia coli UB1005; type: cell-based; conditions: UB1005, 18 h
Method: as §2

[7] = test system: Staphylococcus epidermidis ATCC 12228; type: cell-based; conditions: ATCC 12228, 18 h
Method: as §2

[8] = test system: Staphylococcus aureus ATCC 29213; type: cell-based; conditions: ATCC 29213, 18 h
Method: as §2

[9] = test system: Staphylococcus aureus ATCC 25923; type: cell-based; conditions: ATCC 25923, 18 h
Method: as §2

[10] = test system: Bacillus subtilis CMCC 63501; type: cell-based; conditions: CMCC 63501, 18 h
Method: as §2

[11] = test system: Clinically isolated Escherichia coli EC183; type: cell-based; conditions: Clinically isolated EC183, 18 h
Method: as §2

[12] = test system: Salmonella enterica serovar typhimurium C77-31; type: cell-based; conditions: three independent experiments; for MBC S. typhi C77-31: lowest concentration killing at least 99.9% of initial inoculum
Method: as §2

| Structure (SMILES) | MFC C. albicans 2.2086 [1] [µM] | MIC C. albicans 2.2086 [1] [µM] | MFC C. krusei 2.1857 [2] [µM] | MIC C. krusei 2.1857 [2] [µM] | MFC [3] [µM] | MIC [3] [µM] | MFC C. albicans CA276 [4] [µM] | MIC C. albicans CA276 [4] [µM] | MBC E. coli 25922 [5] [µM] | MBC E. coli 1005 [6] | MBC S. epidermidis 12228 [7] | MBC S. aureus 29213 [8] [µM] | MBC S. aureus 25923 [9] | MBC B. subtilis 63501 [10] | MIC B. subtilis 63501 [10] | MBC E. coli EC183 [11] [µM] | MIC E. coli EC183 [11] [µM] | MBC S. typhi C77-31 [12] [µM] | other results |
| --- | --- | --- | --- | --- | --- | --- | --- | --- | --- | --- | --- | --- | --- | --- | --- | --- | --- | --- | --- |
| CC[C@H](C)[C@H](NC(=O)[C@H](CCCCN)NC(=O)[C@H](CCCCN)NC(=O)[C@H](CC(C)C)NC(=O)[C@H](CCCNC(=N)N)NC(=O)[C@H](CCCCN)NC(=O)[C@H](CCCNC(=N)N)NC(=O)[C@@H](NC(=O)[C@H](CCCCN)NC(=O)[C@H](CCCCN)NC(=O)[C@H](CCCNC(=N)N)NC(=O)[C@H](CC(C)C)NC(=O)[C@H](CCCNC(=N)N)NC(=O)[C@H](CCCNC(=N)N)NC(=O)[C@H](Cc1ccccc1)NC(=O)[C@H](CCCNC(=N)N)NC(=O)CN)[C@@H](C)O)C(=O)NCC(=O)N[C@@H](CCCCN)C(=O)N[C@H](C(=O)N[C@@H](CC(C)C)C(=O)N[C@@H](CCCCN)C(=O)N[C@@H](Cc1c[nH]c2ccccc12)C(=O)N[C@H](C(=O)N1CCC[C@H]1C(=O)N1CCC[C@H]1C(=O)N[C@H](C(=O)N[C@H](C(=O)NCC(=O)N[C@@H](CO)C(=O)N[C@H](C(=O)N1CCC[C@H]1C(=O)N[C@@H](CC(C)C)C(=O)NCC(=O)N[C@@H](CS)C(=O)NCC(N)=O)[C@@H](C)CC)C(C)C)[C@@H](C)CC)[C@@H](C)CC)C(C)C [PMAP-36] (H-GRFRRLRKKTRKRLKKIGKVLKWIPPIVGSIPLGCG-NH2) | 128 (≈ 532 µg/mL) | 128 (≈ 532 µg/mL) | 8 (≈ 33.3 µg/mL) | 8 (≈ 33.3 µg/mL) | 2 (≈ 8.31 µg/mL) | 1 (≈ 4.16 µg/mL) | 128 (≈ 532 µg/mL) | 128 (≈ 532 µg/mL) | 4 (≈ 16.6 µg/mL) | 2 ^c (2) μM | 4 µM (≈ 16.6 µg/mL) | 4 (≈ 16.6 µg/mL) | 4 µM (≈ 16.6 µg/mL) | 1 (1) μM | 1 (1) μM | 1 (≈ 4.16 µg/mL) | 1 (≈ 4.16 µg/mL) | 2 (≈ 8.31 µg/mL) | – |
| CC[C@H](C)[C@H](NC(=O)[C@H](Cc1c[nH]c2ccccc12)NC(=O)[C@H](CCCCN)NC(=O)[C@H](CC(C)C)NC(=O)[C@@H](NC(=O)[C@H](CCCCN)NC(=O)CNC(=O)[C@@H](NC(=O)[C@H](CCCCN)NC(=O)[C@H](CCCCN)NC(=O)[C@H](CC(C)C)NC(=O)[C@@H](N)CCCNC(=N)N)[C@@H](C)CC)C(C)C)C(N)=O [RI12] (H-RLKKIGKVLKWI-NH2) | 128 (≈ 190 µg/mL) | 128 (≈ 190 µg/mL) | 16 (≈ 23.7 µg/mL) | 16 (≈ 23.7 µg/mL) | – | – | 128 (≈ 190 µg/mL) | 128 (≈ 190 µg/mL) | 32 (≈ 47.4 µg/mL) | 32 µM (≈ 47.4 µg/mL) | 64^c (64) μM | 128 (≈ 190 µg/mL) | 128^c (128) μM | 8 µM (≈ 11.8 µg/mL) | 2 µM (≈ 2.96 µg/mL) | 4 (≈ 5.92 µg/mL) | 2 (≈ 2.96 µg/mL) | 32 (≈ 47.4 µg/mL) | MFC C. tropicalis 2.1975 [3]: 8 µM (≈ 11.8 µg/mL); MIC C. tropicalis 2.1975 [3]: 8 µM (≈ 11.8 µg/mL) |
| CC[C@H](C)[C@H](NC(=O)[C@H](Cc1c[nH]c2ccccc12)NC(=O)[C@H](CCCCN)NC(=O)[C@H](CC(C)C)NC(=O)[C@@H](NC(=O)[C@H](CCCCN)NC(=O)CNC(=O)[C@@H](NC(=O)[C@H](CCCCN)NC(=O)[C@H](CCCCN)NC(=O)[C@H](CC(C)C)NC(=O)[C@H](CCCNC(=N)N)NC(=O)[C@H](CCCCN)NC(=O)[C@H](CCCNC(=N)N)NC(=O)[C@@H](NC(=O)[C@H](CCCCN)NC(=O)[C@H](CCCCN)NC(=O)[C@@H](N)CCCNC(=N)N)[C@@H](C)O)[C@@H](C)CC)C(C)C)C(N)=O [RI18] (H-RKKTRKRLKKIGKVLKWI-NH2) | – | – | – | – | 4 (≈ 9.12 µg/mL) | 2 (≈ 4.56 µg/mL) | – | – | 4 (≈ 9.12 µg/mL) | 4 µM (≈ 9.12 µg/mL) | 16 µM (≈ 36.5 µg/mL) | 4 (≈ 9.12 µg/mL) | 8 µM (≈ 18.2 µg/mL) | 2 µM (≈ 4.56 µg/mL) | 1 µM (≈ 2.28 µg/mL) | 2 (≈ 4.56 µg/mL) | 1 (≈ 2.28 µg/mL) | 4 (≈ 9.12 µg/mL) | MFC ([1]; read-out: MFC C. albicans 2.2086): 32 µM (≈ 72.9 µg/mL); MIC ([1]; read-out: MIC C. albicans 2.2086): 16 µM (≈ 36.5 µg/mL); MFC ([2]; read-out: MFC C. krusei 2.1857): 8 µM (≈ 18.2 µg/mL); MIC ([2]; read-out: MIC C. krusei 2.1857): 4 µM (≈ 9.12 µg/mL); MFC [4]: 16 µM (≈ 36.5 µg/mL); MIC [4]: 8 µM (≈ 18.2 µg/mL); MIC E. coli 25922 [5]: 2 µM (≈ 4.56 µg/mL); MIC E. coli 1005 [6]: 2 µM (≈ 4.56 µg/mL); MIC S. epidermidis 12228 [7]: 4 µM (≈ 9.12 µg/mL); MIC S. aureus 29213 [8]: 4 µM (≈ 9.12 µg/mL); MIC S. aureus 25923 [9]: 8 µM (≈ 18.2 µg/mL); MIC S. typhi C77-31 ([12]; broth microdilution, MHB, ~1 × 10^5 CFU/ml, 18 h at 37 °C, visual): 2 µM (≈ 4.56 µg/mL) |
